Laboratory results reported in patent publication US10202350B2, “MCT4 inhibitors for treating disease” (Vettore, LLC, priority 2015, dated 2019).

Experiments:
Type in all cases: cell-based
MCT4 [1] = target: T1, MCT4 (Homo sapiens (Human), UniProt O15427); assay: Lactate transport in MCT4-expressing MDA-MB-453 breast cancer cells (BCECF); conditions: MDA-MB-453 cells stably expressing MCT4; 50 mM L-lactate
Procedure: Assay 1: Lactate Transport in MCT4-Expressing MDA-MB-453 Breast Cancer Cells. […] The following is an exemplary procedure for assaying MCT4 activity of the compounds of Formula (I). Preparing BCECF-Loaded Cells: […] The cells are pelleted (300 g, 5 min), washed once with 1 mL Tyrode's Solution, pH 7.4, re-pelleted (300 g, 5 min), and resuspended in 1 mL Tyrode's Solution, pH 7.4. Lactate Transport Assay: […] Fluorescence measurements are performed on a PerkinElmer LS55 fluorescence spectrometer with dual excitation wavelengths achieved using a filter wheel (FL Winlab program: Fast Filter; […] Emission 535). After establishing baseline BCECF fluorescence (around 10-20 s), 50 μL of 1 M sodium L-lactate (Sigma-Aldrich) is added to the cuvette (final concentration: 50 mM) and rapidly mixed.

MCT1 = MCT1 (Homo sapiens (Human), UniProt P53985); assay: MCT1-mediated lactate transport in BT20 breast cancer cells; conditions: native MCT1, 10 mM L-lactate
MCT1, sequence (P53985 whole entry): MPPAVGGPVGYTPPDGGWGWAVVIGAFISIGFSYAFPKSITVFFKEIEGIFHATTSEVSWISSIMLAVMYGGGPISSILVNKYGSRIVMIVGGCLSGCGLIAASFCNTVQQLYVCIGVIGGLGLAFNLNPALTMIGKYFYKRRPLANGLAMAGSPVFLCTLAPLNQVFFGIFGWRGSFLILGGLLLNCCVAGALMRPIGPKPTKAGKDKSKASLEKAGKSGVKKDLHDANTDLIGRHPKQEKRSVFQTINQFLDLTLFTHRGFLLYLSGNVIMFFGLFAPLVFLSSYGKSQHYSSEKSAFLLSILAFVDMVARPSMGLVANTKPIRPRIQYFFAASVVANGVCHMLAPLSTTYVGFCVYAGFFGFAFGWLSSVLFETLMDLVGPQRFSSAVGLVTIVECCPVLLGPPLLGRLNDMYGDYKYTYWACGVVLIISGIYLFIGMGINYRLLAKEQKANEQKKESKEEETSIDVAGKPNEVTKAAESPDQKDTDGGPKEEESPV
MCT1, sequence (P35613 140-385 partner): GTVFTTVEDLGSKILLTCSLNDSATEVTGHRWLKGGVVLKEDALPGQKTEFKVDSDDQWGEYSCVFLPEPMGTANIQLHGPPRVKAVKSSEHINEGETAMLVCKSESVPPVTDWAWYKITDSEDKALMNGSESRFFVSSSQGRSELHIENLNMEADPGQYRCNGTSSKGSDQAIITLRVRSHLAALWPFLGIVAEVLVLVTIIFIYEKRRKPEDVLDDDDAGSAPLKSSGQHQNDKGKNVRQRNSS
Procedure: (§1) 10 μL of a 30 mM DMSO stock of BCECF-AM ester (Life Technologies) is added and the cells are incubated at 37° C. for 5 min. The cells are pelleted (300 g, 5 min), washed once with 1 mL Tyrode's Solution, pH 7.4, re-pelleted (300 g, 5 min), and resuspended in 1 mL Tyrode's Solution, pH 7.4.
(§2) 2.5 μL BCECF-loaded cells, along with either 10 μL DMSO or 100×compound in DMSO, are added to 937.5 μL of Tyrode's Solution in a quartz 1.0 mL cuvette (PerkinElmer, B0631116). […] After establishing baseline BCECF fluorescence (around 10-20 s), 50 μL of 1 M sodium L-lactate (Sigma-Aldrich) is added to the cuvette (final concentration: 50 mM) and rapidly mixed. The time-dependent decrease in BCECF fluorescence (490/440 ratio) may be fit to an exponential decay curve (Prism GraphPad) to determine the rate of lactate transport.
Assay 4: MCT1-Mediated Lactate Transport in BT20 Breast Cancer Cells.
Preparation of BCECF loaded cells are as described for Assay 1. Lactate transport assay is as described for Assay 1, except 10 mM L-lactate (rather than 50 mM) is added.

MCT4 [2] = target: T1, MCT4; assay: MCT4-mediated lactate transport in NCI-H358 lung adenocarcinoma cells; conditions: native MCT4, 50 mM L-lactate
Procedure: as §1, with “Cells (˜7×10^6) are trypsinized (0.05% Trypsin-EDTA), pelleted (300 g, 5 min), and resuspended in 1 mL Tyrode's Solution, pH 7.4 (119 mM NaCl, 5 mM KCl, 25 mM HEPES, pH 7.4, 2 mM CaCl2, 2 mM MgCl2, 6 g/L glucose). 10” for “10”
2.5 μL BCECF-loaded cells, along with either 10 μL DMSO or 100×compound in DMSO, are added to 937.5 μL of Tyrode's Solution in a quartz 1.0 mL cuvette (PerkinElmer, B0631116). Fluorescence measurements are performed on a PerkinElmer LS55 fluorescence spectrometer with dual excitation wavelengths achieved using a filter wheel (FL Winlab program: Fast Filter; Excitation 490/440; Emission 535). After establishing baseline BCECF fluorescence (around 10-20 s), 50 μL of 1 M sodium L-lactate (Sigma-Aldrich) is added to the cuvette (final concentration: 50 mM) and rapidly mixed. The time-dependent decrease in BCECF fluorescence (490/440 ratio) may be fit to an exponential decay curve (Prism GraphPad) to determine the rate of lactate transport.
Assay 2: MCT4-Mediated Lactate Transport in NCI-H358 Lung Adenocarcinoma Cells.
NCI-H358 lung adenocarcinoma cells may be used to measure MCT4 activity in cells with high native levels of MCT4 and low levels of MCT1 and are known to those with skill in the art. Preparation of BCECF-loaded cells and lactate transport activity may be determined as described for Assay 1.

MCT4 [3] = target: T1, MCT4; assay: MCT4-mediated lactate transport in MDA-MB-231 breast cancer cells; conditions: MDA-MB-231 cells, native MCT4; 50 mM L-lactate
Procedure: as §1, §2
Preparation of BCECF-loaded cells and lactate transport activity may be determined as described for Assay 1.

T1 sequence (O15427 whole entry, looked up): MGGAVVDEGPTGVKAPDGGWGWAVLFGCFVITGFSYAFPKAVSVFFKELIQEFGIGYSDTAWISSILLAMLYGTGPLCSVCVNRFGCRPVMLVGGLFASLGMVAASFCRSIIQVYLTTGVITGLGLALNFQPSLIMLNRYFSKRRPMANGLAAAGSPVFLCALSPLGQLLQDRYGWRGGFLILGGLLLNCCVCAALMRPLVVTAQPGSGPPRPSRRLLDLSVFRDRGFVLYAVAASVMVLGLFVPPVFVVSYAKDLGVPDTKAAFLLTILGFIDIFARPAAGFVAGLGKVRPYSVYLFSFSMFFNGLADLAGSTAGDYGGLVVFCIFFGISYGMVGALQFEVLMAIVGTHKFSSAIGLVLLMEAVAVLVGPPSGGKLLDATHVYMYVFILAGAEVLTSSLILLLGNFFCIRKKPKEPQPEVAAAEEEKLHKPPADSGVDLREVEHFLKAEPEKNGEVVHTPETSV
T1 sequence (P35613 whole entry partner, looked up): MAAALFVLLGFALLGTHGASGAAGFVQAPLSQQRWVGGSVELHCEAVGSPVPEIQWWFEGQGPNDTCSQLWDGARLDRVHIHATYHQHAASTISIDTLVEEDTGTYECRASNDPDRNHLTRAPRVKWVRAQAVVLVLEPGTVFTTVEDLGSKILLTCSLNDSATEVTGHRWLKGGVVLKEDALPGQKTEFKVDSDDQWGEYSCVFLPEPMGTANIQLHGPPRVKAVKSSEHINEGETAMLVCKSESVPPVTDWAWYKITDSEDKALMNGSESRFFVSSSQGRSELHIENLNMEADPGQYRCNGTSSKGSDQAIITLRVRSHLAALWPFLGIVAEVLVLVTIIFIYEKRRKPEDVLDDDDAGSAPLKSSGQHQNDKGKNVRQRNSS

Row | SMILES | IC50 (MCT4 [1]) [nM] | IC50 (MCT1; Table 2) [nM] | IC50 (MCT4 [2]) [nM] | IC50 (MCT4 [3]) [nM] | IC50 (MCT1; Table 3) [nM]
1 | CC(C)(OCc1cc(-c2ccccc2)n(Cc2cccc(Cl)c2)n1)C(=O)O [Example 1, 2-[[1-[(3-Chlorophenyl)methyl]-5-phenyl-pyrazol-3-yl]methoxy]-2-methyl-propanoic Acid] | 340 | 50000 | 140 | – | –
2 | CC(C)(OCc1cc(-c2ccc(Cl)cc2)n(Cc2ccc(Cl)cc2)n1)C(=O)O [Example 2] | 450 | 29000 | 240 | – | –
3 | CC(C)(OCc1cc(-c2ccc(Cl)cc2)n(Cc2ccc(Cl)cc2Cl)n1)C(=O)O [Example 5, 2-[[5-(4-Chlorophenyl)-1-[(2,4-dichlorophenyl)methyl]pyrazol-3-yl]methoxy]-2-methyl-propanoic acid] | 160 | 1800 | 63 | – | –
4 | O=C(O)COCc1cc(-c2ccc(Cl)cc2)n(Cc2ccc(Cl)cc2Cl)n1 [Example 6, 2-[[5-(4-Chlorophenyl)-1-[(2,4-dichlorophenyl)methyl]pyrazol-3-yl]methoxy]acetic acid] | 2400 | 6600 | 4600 | – | –
5 | CC(C)(OCc1cc(-c2ccc(Cl)cc2)n(Cc2ccccc2)n1)C(=O)O [Example 7, 2-[[1-Benzyl-5-(4-Chlorophenyl)pyrazol-3-yl]methoxy]-2-methyl-propanoic acid] | 720 | 70000 | 460 | – | –
6 | CC(C)(OCc1cc(-c2cccc(C(F)(F)F)c2)n(Cc2ccccc2Cl)n1)C(=O)O [Example 13, 2-[[1-[(2-Chlorophenyl)methyl]-5-[3-(trifluoromethyl)phenyl]pyrazol-3-yl]methoxy]-2-methyl-propanoic acid] | 20 | 17000 | 22 | – | –
7 | CC(C)(OCc1cc(C2CCCCC2)n(Cc2ccccc2Cl)n1)C(=O)O [Example 15, 2-[[1-[(2-Chlorophenyl)methyl]-5-cyclohexyl-pyrazol-3-yl]methoxy]-2-methyl-propanoic acid] | 900 | > 33000 | 440 | – | –
8 | CC(C)(OCc1cc(C2CCCC2)n(Cc2ccccc2Cl)n1)C(=O)O [Example 16, 2-[[1-[(2-Chlorophenyl)methyl]-5-cyclopentyl-pyrazol-3-yl]methoxy]-2-methyl-propanoic acid] | 1000 | 73000 | 640 | – | –
9 | O=C(O)C1(OCc2cc(-c3ccc(Cl)cc3)n(Cc3ccccc3Cl)n2)CC1 [Example 17, 1-[[5-(4-Chlorophenyl)-1-[(2-chlorophenyl)methyl]pyrazol-3-yl]methoxy]cyclopropanecarboxylic acid] | 440 | 1200 | 860 | – | –
10 | CC(C)(OCc1cc(-c2ccc(Cl)cc2)n(Cc2ccccc2F)n1)C(=O)O [Example 19, 2-[[5-(4-Chlorophenyl)-1-[(2-fluorophenyl)methyl]pyrazol-3-yl]methoxy]-2-methyl-propanoic acid] | 110 | 57000 | 160 | – | –
11 | CC(C)(OCc1cc(-c2ccc(Cl)cc2)n(Cc2ccccc2Cl)n1)C(N)=O [Example 20, 2-[[5-(4-Chlorophenyl)-1-[(2-chlorophenyl)methyl]pyrazol-3-yl]methoxy]-2-methyl-propanamide] | 17000 | 7900 | 22000 | – | –
12 | CC(C)(OCc1cc(-c2ccc(Cl)cc2)n(Cc2ccncc2)n1)C(=O)O [Example 21, 2-[[5-(4-chlorophenyl)-1-(4-pyridylmethyl)pyrazol-3-yl]methoxy]-2-methyl-propanoic acid] | 35000 | 300000 | 48000 | – | –
13 | CC(C)(OCc1cc(-c2ccc(Cl)cc2)n(Cc2cccnc2)n1)C(=O)O [Example 23, 2-[[5-(4-Chlorophenyl)-1-(3-pyridylmethyl)pyrazol-3-yl]methoxy]-2-methyl-propanoic acid] | 1500 | – | 2100 | – | –
14 | COc1cccc(-c2cc(COC(C)(C)C(=O)NS(C)(=O)=O)nn2Cc2ccccc2Cl)c1 [Example 81, 2-[[1-[(2-chlorophenyl)methyl]-5-(3-methoxyphenyl)pyrazol-3-yl]methoxy]-2-methyl-N-methylsulfonyl-propanamide] | – | – | – | 6300 | 6600
15 | COC(=O)C(C)(C)OCc1cc(-c2cccc(OC)c2)n(Cc2ccccc2Cl)n1 [Example 82, Methyl 2-[[1-[(2-chlorophenyl)methyl]-5-(3-methoxyphenyl)pyrazol-3-yl]methoxy]-2-methyl-propanoate] | – | – | – | 460 | 16000

The remaining lines, values ahead:

Row | IC50 (MCT4 [1]) [nM] | IC50 (MCT1; Table 2) [nM] | IC50 (MCT4 [2]) [nM] | IC50 (MCT4 [3]) [nM] | IC50 (MCT1; Table 3) [nM] | SMILES
16 | 72 | 25000 | 60 | – | – | CC(C)(OCc1cc(-c2ccc(Cl)cc2)n(Cc2ccccc2Cl)n1)C(=O)O [Example 3, 2-[[5-(4-Chlorophenyl)-1-[(2-chlorophenyl)methyl]pyrazol-3-yl]methoxy]-2-methyl-propanoic acid]
17 | 68 | 33000 | 54 | – | – | CC(C)(OCc1cc(-c2ccc(F)cc2)n(Cc2ccccc2Cl)n1)C(=O)O [Example 4, 2-[[1-[(2-Chlorophenyl)methyl]-5-(4-fluorophenyl)pyrazol-3-yl]methoxy]-2-methyl-propanoic acid]
18 | 69 | 46000 | 81 | – | – | CC(C)(OCc1cc(-c2ccccc2)n(Cc2ccccc2Cl)n1)C(=O)O [Example 8, 2-[[1-[(2-Chlorophenyl)methyl]-5-phenyl-pyrazol-3-yl]methoxy]-2-methyl-propanoic acid]
19 | 320 | 39000 | 340 | – | – | CC(C)(OCc1cc(-c2ccccc2Cl)n(Cc2ccccc2Cl)n1)C(=O)O [Example 9, 2-[[5-(2-Chlorophenyl)-1-[(2-chlorophenyl)methyl]pyrazol-3-yl]methoxy]-2-methyl-propanoic acid]
20 | 21 | 8800 | 33 | – | – | CC(C)(OCc1cc(-c2cccc(Cl)c2)n(Cc2ccccc2Cl)n1)C(=O)O [Example 10, 2-[[5-(3-Chlorophenyl)-1-[(2-chlorophenyl)methyl]pyrazol-3-yl]methoxy]-2-methyl-propanoic acid]
21 | 45 | 29000 | 25 | – | – | Cc1cccc(-c2cc(COC(C)(C)C(=O)O)nn2Cc2ccccc2Cl)c1 [Example 11, 2-[[1-[(2-Chlorophenyl)methyl]-5-(m-tolyl)pyrazol-3-yl]methoxy]-2-methyl-propanoic acid]
22 | 38 | 58000 | 49 | – | – | CC(C)(OCc1cc(-c2cccc(F)c2)n(Cc2ccccc2Cl)n1)C(=O)O [Example 12, 2-[[1-[(2-Chlorophenyl)methyl]-5-(3-fluorophenyl)pyrazol-3-yl]methoxy]-2-methyl-propanoic acid]
23 | 5300 | 45000 | 4200 | – | – | CC(C)(OCc1cc(-c2nccs2)n(Cc2ccccc2Cl)n1)C(=O)O [Example 18, 2-[[1-[(2-Chlorophenyl)methyl]-5-thiazol-2-yl-pyrazol-3-yl]methoxy]-2-methyl-propanoic acid]
